Laboratory results reported in patent US20080096811A1, “[…] VPAC2 RECEPTOR PEPTIDE AGONISTS” (Eli Lilly and Company, published 2008).
*1 amine or outer side, *2 acyl side, *3 side chain or, on linkers, in order; H or OH if unused. Where a SMILES comes first, the peptide text is derived from it. Where no end group is shown, it is not given here. Side-chain parts run from the residue outwards. The star is where a group is joined. γGlu = O=C(O)[C@H](CCC(=O)[*:2])N[*:1]; Palmitoyl = CCCCCCCCCCCCCCCC(=O)*; Hexanoyl = CCCCCC(=O)*; Propionyl = CCC(=O)*

T1: human VPAC2 (Homo sapiens, UniProt P41587)
T1 construct: expressed in transfected cells
T1 sequence (P41587 24-438): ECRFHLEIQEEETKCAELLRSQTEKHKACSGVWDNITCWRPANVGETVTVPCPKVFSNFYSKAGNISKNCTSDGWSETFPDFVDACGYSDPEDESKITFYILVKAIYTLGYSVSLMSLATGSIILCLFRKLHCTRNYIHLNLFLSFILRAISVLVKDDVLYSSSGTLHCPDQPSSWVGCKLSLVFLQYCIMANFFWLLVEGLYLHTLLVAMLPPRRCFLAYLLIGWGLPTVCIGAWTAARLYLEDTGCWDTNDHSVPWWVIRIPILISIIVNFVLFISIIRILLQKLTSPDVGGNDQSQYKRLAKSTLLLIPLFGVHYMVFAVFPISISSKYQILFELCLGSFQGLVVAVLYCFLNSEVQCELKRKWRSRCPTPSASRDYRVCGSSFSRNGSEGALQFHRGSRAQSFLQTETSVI

T2: human VPAC1 (Homo sapiens, UniProt P32241)
T2 sequence (P32241 31-457): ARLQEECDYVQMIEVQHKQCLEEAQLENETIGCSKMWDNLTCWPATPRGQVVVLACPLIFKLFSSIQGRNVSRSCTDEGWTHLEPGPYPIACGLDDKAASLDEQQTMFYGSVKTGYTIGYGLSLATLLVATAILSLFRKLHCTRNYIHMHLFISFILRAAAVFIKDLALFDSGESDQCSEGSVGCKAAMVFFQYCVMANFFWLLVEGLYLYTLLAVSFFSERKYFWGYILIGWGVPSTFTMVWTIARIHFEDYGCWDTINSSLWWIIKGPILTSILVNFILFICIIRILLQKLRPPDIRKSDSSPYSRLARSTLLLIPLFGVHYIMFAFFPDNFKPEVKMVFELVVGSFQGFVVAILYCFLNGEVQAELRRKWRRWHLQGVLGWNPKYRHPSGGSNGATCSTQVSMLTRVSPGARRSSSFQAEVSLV

T3: human VPAC2 receptor (human) (UniProt P41587)
T3 sequence: T1 sequence (P41587 24-438)

B1: P95 (peptide)
peptide: Propionyl-HSDAVFTDNYTRLRKQVAAKKYLQSIKNSRTSPPPK([γGlu-Palmitoyl])-NH2
SMILES: CCCCCCCCCCCCCCCC(=O)N[C@@H](CCC(=O)NCCCC[C@H](NC(=O)[C@@H]1CCCN1C(=O)[C@@H]1CCCN1C(=O)[C@@H]1CCCN1C(=O)[C@H](CO)NC(=O)[C@@H](NC(=O)[C@H](CCCNC(=N)N)NC(=O)[C@H](CO)NC(=O)[C@H](CC(N)=O)NC(=O)[C@H](CCCCN)NC(=O)[C@@H](NC(=O)[C@H](CO)NC(=O)[C@H](CCC(N)=O)NC(=O)[C@H](CC(C)C)NC(=O)[C@H](Cc1ccc(O)cc1)NC(=O)[C@H](CCCCN)NC(=O)[C@H](CCCCN)NC(=O)[C@H](C)NC(=O)[C@H](C)NC(=O)[C@@H](NC(=O)[C@H](CCC(N)=O)NC(=O)[C@H](CCCCN)NC(=O)[C@H](CCCNC(=N)N)NC(=O)[C@H](CC(C)C)NC(=O)[C@H](CCCNC(=N)N)NC(=O)[C@@H](NC(=O)[C@H](Cc1ccc(O)cc1)NC(=O)[C@H](CC(N)=O)NC(=O)[C@H](CC(=O)O)NC(=O)[C@@H](NC(=O)[C@H](Cc1ccccc1)NC(=O)[C@@H](NC(=O)[C@H](C)NC(=O)[C@H](CC(=O)O)NC(=O)[C@H](CO)NC(=O)[C@H](Cc1c[nH]cn1)NC(=O)CC)C(C)C)[C@@H](C)O)[C@@H](C)O)C(C)C)[C@@H](C)CC)[C@@H](C)O)C(N)=O)C(=O)O
B2: P96 (peptide)
peptide: HSDAVFTDNYTRLRKQAAAKKYLQSIKNSRTSPPP-NH2

Assays:
human VPAC2 [1] = molecular target: T1, human VPAC2; test: Filter binding assay, human VPAC2 membranes, 125I-labeled VIP tracer
Description: (§1) For this assay, the solutions and equipment include:
(§2) Presoak solution: 0.5% Polyethyleneamine in Aqua dest.
(§3) Buffer for flushing filter plates: 25 mM […] pH 7.4
(§4) Blocking buffer: 25 mM HEPES pH 7.4; 0.2% protease free BSA
(§5) Assay buffer: 25 mM HEPES pH 7.4; 0.5% protease free BSA
(§6) Dilution and assay plate: PS-Microplate, U form
(§7) Filtration Plate Multiscreen FB Opaque Plate; […] Type B Glasfiber filter
(§8) In order to prepare the filter plates, aspirate the presoak solution by vacuum filtration. Flush the plates twice with 200 μL flush buffer. Add 200 μL blocking buffer to the filter plate. The filter plate is then incubated […] for 1 hour at room temperature.
(§9) Fill the assay plate with 25 μL assay buffer, 25 μL membranes (2.5 μg) suspended in assay buffer, 25 μL compound (agonist) in assay buffer, and 25 μL tracer (about 40000 cpm) in assay buffer. Incubate the filled plate for 1 hour with shaking.
(§10) Conduct the transfer from assay plate to filter plate. Aspirate the blocking buffer by vacuum filtration and wash two times with flush buffer. Transfer 90 μL from the assay plate to the filter plate. Aspirate the 90 μL transferred from assay plate and wash three times with 200 μL flush buffer. Remove the plastic support. Dry for 1 hour at 60° C. Add 30 μL Microscint. Perform the count.

human PAC1 = human PAC1 (Homo sapiens, UniProt P41586); test: biochemical
human PAC1, sequence (P41586 21-468): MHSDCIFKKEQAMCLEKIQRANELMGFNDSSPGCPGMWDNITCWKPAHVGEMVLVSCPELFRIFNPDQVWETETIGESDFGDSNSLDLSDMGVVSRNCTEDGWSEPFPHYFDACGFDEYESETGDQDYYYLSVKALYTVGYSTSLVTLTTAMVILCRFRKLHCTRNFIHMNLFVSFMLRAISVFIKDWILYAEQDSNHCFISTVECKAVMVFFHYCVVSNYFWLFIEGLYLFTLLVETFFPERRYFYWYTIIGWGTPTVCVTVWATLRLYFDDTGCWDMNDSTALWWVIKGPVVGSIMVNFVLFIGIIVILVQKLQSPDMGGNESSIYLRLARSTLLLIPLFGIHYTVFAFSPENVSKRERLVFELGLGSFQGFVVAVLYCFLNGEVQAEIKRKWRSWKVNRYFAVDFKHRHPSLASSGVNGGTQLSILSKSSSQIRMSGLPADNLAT
Description: as §1, §2, §3, §4, §5, §6, §7, §8, §9, §10

human VPAC1 = molecular target: T2, human VPAC1; test: Filter binding assay, human VPAC1 membranes, 125I-labeled VIP tracer; design: expressed in transfected cells
Description: as §1, §2, §3, §4, §5, §6, §7, §8, §9, §10

human VPAC2 [2] = molecular target: T1, human VPAC2; test: Alpha screen cAMP in vitro potency, human VPAC2; format: cell-based
Description: Alpha screen: Cells are washed in the culture flask once with PBS. Then, the cells are rinsed with enzyme free dissociation buffer. The dissociated cells are removed. The cells are then spun down and washed in stimulation buffer. For each data point, 50,000 cells suspended in stimulation buffer are used. To this buffer, Alpha screen acceptor beads are added along with the stimuli. This mixture is incubated for 60 minutes. Lysis buffer and Alpha screen donor beads are added and are incubated for 60 to 120 minutes. The Alpha screen signal (indicative of intracellular cAMP levels) is read in a suitable instrument (e.g. AlphaQuest from Perlin-Elmer). Steps including Alpha screen donor and acceptor beads are performed in reduced light.

[3] = molecular target: T3, human VPAC2 receptor (human)

| Molecule | IC50 (human VPAC2 [1]) | IC50 (human PAC1) | IC50 (human VPAC1) | EC50 (human VPAC2 [2]) | EC50 (nM) for cAMP generation, Alpha Screen [3] | EC50 (nM) for cAMP generation, DiscoveRx [3] |
| --- | --- | --- | --- | --- | --- | --- |
| CCCCCC(=O)N[C@@H](Cc1c[nH]cn1)C(=O)N[C@@H](CO)C(=O)N[C@@H](CC(=O)O)C(=O)N[C@@H](C)C(=O)N[C@H](C(=O)N[C@@H](Cc1ccccc1)C(=O)N[C@H](C(=O)N[C@@H](CC(=O)O)C(=O)N[C@@H](CC(N)=O)C(=O)N[C@@H](Cc1ccc(O)cc1)C(=O)N[C@H](C(=O)N[C@@H](CCCNC(=N)N)C(=O)N[C@@H](CC(C)C)C(=O)N[C@@H](CCCNC(=N)N)C(=O)N[C@@H](CCCCN)C(=O)N[C@@H](CCC(N)=O)C(=O)N[C@H](C(=O)N[C@@H](C)C(=O)N[C@@H](C)C(=O)N[C@@H](CCCCN)C(=O)N[C@@H](CCCCN)C(=O)N[C@@H](Cc1ccc(O)cc1)C(=O)N[C@@H](CC(C)C)C(=O)N[C@@H](CCC(N)=O)C(=O)N[C@@H](CO)C(=O)N[C@H](C(=O)N[C@@H](CCCCN)C(=O)N[C@@H](CC(N)=O)C(=O)N[C@@H](CO)C(=O)N[C@@H](CCCNC(=N)N)C(=O)N[C@H](C(=O)N[C@@H](CO)C(=O)N1CCC[C@H]1C(=O)N1CCC[C@H]1C(=O)N1CCC[C@H]1C(=O)N[C@@H](CCCCNC(=O)[C@@H](N)Cc1c[nH]c2ccccc12)C(N)=O)[C@@H](C)O)[C@@H](C)CC)C(C)C)[C@@H](C)O)[C@@H](C)O)C(C)C [Agonist P118] (Hexanoyl-HSDAVFTDNYTRLRKQVAAKKYLQSIKNSRTSPPPK(Trp)-NH2) | 0.25 nM | 125 nM | 76.3 nM | – | – | – |
| CC[C@H](C)[C@H](NC(=O)[C@H](CO)NC(=O)[C@H](CCC(N)=O)NC(=O)[C@H](CC(C)C)NC(=O)[C@H](Cc1ccc(O)cc1)NC(=O)[C@H](CCCCN)NC(=O)[C@H](CCCCN)NC(=O)[C@H](C)NC(=O)[C@H](C)NC(=O)[C@@H](NC(=O)[C@H](CCC(N)=O)NC(=O)[C@H](CCCCN)NC(=O)[C@H](CCCNC(=N)N)NC(=O)[C@H](CC(C)C)NC(=O)[C@H](CCCNC(=N)N)NC(=O)[C@@H](NC(=O)[C@H](Cc1ccc(O)cc1)NC(=O)[C@H](CC(N)=O)NC(=O)[C@H](CC(=O)O)NC(=O)[C@@H](NC(=O)[C@H](Cc1ccccc1)NC(=O)[C@@H](NC(=O)[C@H](C)NC(=O)[C@H](CC(=O)O)NC(=O)[C@H](CO)NC(=O)[C@@H](N)Cc1c[nH]cn1)C(C)C)[C@@H](C)O)[C@@H](C)O)C(C)C)C(=O)N[C@@H](CCCCN)C(=O)N[C@@H](CC(N)=O)C(=O)N[C@@H](CO)C(=O)N[C@@H](CCCNC(=N)N)C(=O)N[C@H](C(=O)N[C@@H](CO)C(=O)N1CCC[C@H]1C(=O)N1CCC[C@H]1C(=O)N1CCC[C@H]1C(=O)N[C@@H](CCCCNC(=O)[C@@H](N)Cc1c[nH]c2ccccc12)C(N)=O)[C@@H](C)O [Agonist P128] (H-HSDAVFTDNYTRLRKQVAAKKYLQSIKNSRTSPPPK(Trp)-NH2) | 2.25 nM | 104 nM | 110 nM | 1.78 nM | – | – |
| CCCCCC(=O)N[C@@H](Cc1c[nH]cn1)C(=O)N[C@@H](CO)C(=O)N[C@@H](CC(=O)O)C(=O)N[C@@H](C)C(=O)N[C@H](C(=O)N[C@@H](Cc1ccccc1)C(=O)N[C@H](C(=O)N[C@@H](CC(=O)O)C(=O)N[C@@H](CC(N)=O)C(=O)N[C@@H](Cc1ccc(O)cc1)C(=O)N[C@H](C(=O)N[C@@H](CCCNC(=N)N)C(=O)N[C@@H](CC(C)C)C(=O)N[C@@H](CCCNC(=N)N)C(=O)N[C@@H](CCCCN)C(=O)N[C@@H](C)C(=O)N[C@@H](C)C(=O)N[C@@H](C)C(=O)N[C@@H](C)C(=O)N[C@@H](CCCCN)C(=O)N[C@@H](CCCCN)C(=O)N[C@@H](Cc1ccc(O)cc1)C(=O)N[C@@H](CC(C)C)C(=O)N[C@@H](CCC(N)=O)C(=O)N[C@@H](CO)C(=O)N[C@H](C(=O)N[C@@H](CCCCN)C(=O)N[C@@H](CC(N)=O)C(=O)N[C@@H](CO)C(=O)N[C@@H](CCCNC(=N)N)C(=O)N[C@H](C(=O)N[C@@H](CO)C(=O)N1CCC[C@H]1C(=O)N1CCC[C@H]1C(=O)N1CCC[C@H]1C(N)=O)[C@@H](C)O)[C@@H](C)CC)[C@@H](C)O)[C@@H](C)O)C(C)C [Agonist P178] (Hexanoyl-HSDAVFTDNYTRLRKAAAAKKYLQSIKNSRTSPPP-NH2) | 0.16 nM | – | 35.7 nM | 0.12 nM | – | – |
| CC[C@H](C)[C@H](NC(=O)[C@H](CO)NC(=O)[C@H](CC(N)=O)NC(=O)[C@H](CC(C)C)NC(=O)[C@H](Cc1ccc(O)cc1)NC(=O)[C@H](CCCCN)NC(=O)[C@H](CCCCN)NC(=O)[C@@H](NC(=O)[C@H](C)NC(=O)[C@H](CCSC)NC(=O)[C@H](CCC(N)=O)NC(=O)[C@H](CCCCN)NC(=O)[C@H](CCCN=C(N)N)NC(=O)[C@H](CC(C)C)NC(=O)[C@H](CCCN=C(N)N)NC(=O)[C@@H](NC(=O)[C@H](Cc1ccc(O)cc1)NC(=O)[C@H](CC(N)=O)NC(=O)[C@H](CC(=O)O)NC(=O)[C@@H](NC(=O)[C@H](Cc1ccccc1)NC(=O)[C@@H](NC(=O)[C@H](C)NC(=O)[C@H](CC(=O)O)NC(=O)[C@H](CO)NC(=O)[C@@H](N)Cc1cnc[nH]1)C(C)C)[C@@H](C)O)[C@@H](C)O)C(C)C)C(=O)N[C@@H](CC(C)C)C(=O)N[C@@H](CC(N)=O)C(=O)O [VIP, reference compound] | – | > 25000 nM | – | – | – | – |
| B1 | – | – | – | – | 0.24 nM | 0.45 nM |
| B2 | – | – | – | – | 0.9 nM | – |
